The text below walks through data of patent publication US11096947B2, “Combination products with tyrosine kinase inhibitors and their use” (Novartis AG, priority 2012, dated 2021).

Test [1] deals with HCC827GR5 subcutaneous xenografts. As to the kind of experiment: Efficacy experiments in mice bearing HCC827GR5 subcutaneous xenografts. The class given is in vivo. To be noted: for antitumor effect as single agent: Discussion; for antitumor effect as single agent / Delta tumor volume / regressions: MET inhibitor 3 mg/kg, gefitinib 25 mg/kg; for T/C: gefitinib 25 mg/kg orally once a day; for T/C / regressions: 13 days; for regressions: orally once a day. As to the method: Experiments were performed in female Hsd: Athymic nude-nu CPB mice obtained from Harlan Winkelmann, Germany. Animally were approximately 11 weeks of age at treatment start and housed under Optimized Hygienic Conditions (OHC) in Macrolon type III cages (max. 5 animals per cage) with free access to food and water.
Cell line identity has been confirmed by SNP genotyping. Cells were grown in RPMI 1640 medium (Amimed #1-41F01-1) supplemented with 10% heat inactivated FCS, (Amimed #2-01F16-1), 2 mM L-glutamine (Amimed #5-10K00-H), 1 mM sodium pyruvate (Amimed #5-60F00-H) and 10 mM HEPES (Gibco #15630). […]. Cells were incubated at 37° C. in a humidified atmosphere with 5% CO2.
HCC827GR5 tumors were established by subcutaneous injection of 5×10^6 cells in 115 μl HBSS (Hank's buffered salt solution) containing 50% Matrigel (v/v) (gelatinous protein mixture secreted by Engelbreth-Holm-Swarm (EHS) mouse sarcoma cells, BD Biosciences, Franklin Lakes, N.J., USA) into the right flank of mice, with a 13 gauge trocar needle under Forene® (Isofluran; Abott, Switzerland) anesthesia. In the efficacy experiments, treatments started when the tumors reached an average size of 150 mm^3, 11 days post tumor implantation. In the PK/PD experiment, treatments were started when the mean tumor size was 450 mm^3, 15 days post tumor implantation.
The application volumes were 10 ml/kg for the single agents and for the vehicle control group or 5 ml/kg when the test compounds were given in combination. All indicated doses refer to free base equivalent of 2-Fluoro-N-methyl-4-[(7-quinolin-6-yl-methyl)-imidazo[1,2-b]triazin-2-yl]benzamide (dihydrochloride salt). […].
Tumor volumes were measured with calipers and determined according to the formula length×diameter^2×π/6. In addition to presenting changed of tumor volumes over the course of treatments, antitumor activity is expressed as T/C % ((mean change of tumor volume of treated animals/mean change of tumor volume of control animals)×100). Regressions (%) were calculated according to the formula ((mean tumor volume at end of treatment−mean tumor volume at start of treatment)/mean tumor volume at start of treatment)×100. Body weights and tumor volumes were recorded twice a week.
Statistics: Were applicable, data is presented as mean±SEM. For all tests, the level of significance was set at p<0.05. For tumor volumes, comparisons between treatment groups and vehicle control group were done using one-way ANOVA followed by Dunnett's test. Pairwise comparisons were done using a one way ANOVA followed by Tukey's test. The level of significance of body weight change within a group between the start and the end of the treatment period was determined using a paired t-test. Comparisons of delta body weighs between treatment and vehicle control groups were performed by a one-way ANOVA followed by a post hoc Dunnett's test. Calculations were performed using GraphPad Prism 4 for Windows (GraphPad Software Inc.). In addition, an approximation of drug interactions was made using the method described by Clarke (Clarke R., Breast Cancer Research and Treatment 46, 255-278 (1997)). This was applied to delta tumor volumes and can estimate interactions from limited data. In short, the combination data was assessed using the method presented by Clarke which can estimate interactions from limited data. For compound A, B or the combination AB (with control group C), antagonism is predicted when the calculation AB/C>A/C×B/C, additive effect: AB/C=A/C×B/C, synergistic interactions are predicted to occur when AB/C<A/C×B/C.
The body weight increase was statistically significant in all groups excepted the combination group (p<0.05, paired t-test).

A further test concerns HCC827 cells. Kind of test: Proliferation assay (resazurin / AlamarBlue readout) in HCC827 cells. The class given is cell-based. Particulars: single agent, up to 1 μM.
Another test relates to HCC827 GR cells. Kind of test: Proliferation assay (resazurin / AlamarBlue readout) in gefitinib-resistant HCC827 GR cells. The class given is cell-based. To be noted: monotherapy.
The subject of test [2] is HCC827GR5 subcutaneous xenografts. Kind of test: Follow-up of HCC827GR5 xenografts after treatment discontinuation or extension. Particulars: 4 animals. Type of test: in vivo, mice. As to the method: FIG. 5: Graphic representation of the change of tumor volumes over time after treatment discontinuation in mice (in vivo) as described in more detail in the Examples. […] Treatments started 11 days post tumor cells implantation and lasted 13 consecutive days. […] Four animals were kept under observation, without any treatment (left panel) while the two other groups of 4 animals each were kept under daily treatment as before (right panel). Tumor volumes and body weights were recorded only once a week. Horizontal lines are set at 100 and 500 mm^3 tumor volumes.
[…]. Treatments started 11 days post tumor cells implantation and lasted 13 consecutive days. […] Four animals were kept under observation, without any treatment (left panel) while the two other groups of 4 animals each were kept under daily treatment as before (right panel). Tumor volumes and body weights were recorded only once a week. Horizontal lines are set at 100 and 500 mm^3 tumor volumes, respectively. […] […]. The tumors in the animals that received the combination therapy continued to regress from a mean volume of 33+/−1.3 to 26.3+/−2.8 mm^3 (representing a mean of 89.2% regression from the initial volume).

The subject of test [3] is c-MET-driven or HGF/c-MET-driven xenograft. As to the kind of experiment: c-MET-driven or HGF/c-MET-driven xenograft mouse tumor models. Type of test: in vivo. Particulars: oral dosing. From the text: […]. […] […]. […] Importantly, cell lines with simultaneous HGF and c-MET expression are also relatively resistant to EGFR inhibitors compared to cell lines with similar c-MET level that lack HGF expression.

Experimental for HCC827 GR cells: 24 h later, a 10-point dilution series of each compound was prepared in DMSO. […] A DMSO-only control was included. […] Recombinant human HGF (PeproTech, catalogue number 100-39) was added together with compounds at a constant concentration as indicated in the respective experiments. Cells were incubated for 72 to 96 h and the amount of viable cells was then assessed using a resazurin sodium salt dye reduction readout (commercially known as AlamarBlue® assay, Invitrogen, Life Technologies Corporation, Grand Island, N.Y., USA). Values were normalized and plotted as either “% of control” with the DMSO control set to 100%, or as “fold seeded cells”. In this case a resazurin readout of separate wells with untreated cells was obtained 24 h after seeding in order to determine a “seeded cells” value for normalization.
Experimental for HCC827 cells: A DMSO-only control was included. […] Recombinant human HGF (PeproTech, catalogue number 100-39) was added together with compounds at a constant concentration as indicated in the respective experiments. Cells were incubated for 72 to 96 h and the amount of viable cells was then assessed using a resazurin sodium salt dye reduction readout (commercially known as AlamarBlue® assay, Invitrogen, Life Technologies Corporation, Grand Island, N.Y., USA). Values were normalized and plotted as either “% of control” with the DMSO control set to 100%, or as “fold seeded cells”. In this case a resazurin readout of separate wells with untreated cells was obtained 24 h after seeding in order to determine a “seeded cells” value for normalization. Plotting of the data and curve-fitting were done with GraphPad Prism version 5.00 for Windows (GraphPad Software, Inc., La Jolla, Calif., USA).

In the case of `COc1cc2ncnc(Nc3ccc(F)c(Cl)c3)c2cc1OCCCN1CCOCC1` [gefitinib, N-(3-hloro-4-fluorophenyl)-7-methoxy-6-[3-(morpholin-4-yl)propoxy]quinazolin-4-amine, reference compound], the “antitumor effect as single agent” value in test [1] is reported as “statistically significant antitumor effects, but never regressions”. Also, the figures for the T/C in test [1] (first experiment (FIG. 3)) and in test [1] (second experiment (FIG. 4)) were 32.5% and 49.4%, respectively. The Delta tumor volume in test [1] (first experiment, Table 1) was found to be 173.1; in test [1] (second experiment, Table 2), 261.
With `CNC(=O)c1ccc(-c2cnc3ncc(Cc4ccc5ncccc5c4)n3n2)cc1F` [2-fluoro-N-methyl-4-[(7-quinolin-6-yl-methyl)-imidazo[1,2-b]triazin-2-yl]benzamide], in the test on HCC827 cells, the “effect on proliferation of the HCC827 cells” value is given as “did not show any substantial effect”. Moreover, the “effect of single agent on proliferation of HCC827 GR cells” value with HCC827 GR cells is given as “modest”. Besides, the “antitumor effect as single agent” value in test [1] is “slight statistically significant tumor regressions”. In addition, the regressions in test [1] (first experiment (FIG. 3)) is 22.9%; in test [1] (second experiment (FIG. 4)), 21.4%. Further, the Delta tumor volume in test [1] (first experiment, Table 1) is −60.2; in test [1] (second experiment, Table 2), −55.7. Besides, the “tumor volume, mean+/−SEM, after treatment discontinuation” value in test [2] (no treatment after day 24 (FIG. 5 left graph)) was 516+/−112 mm^3. In addition, in test [2] (treatment continued after day 24 (FIG. 5 right panel)), the “tumor volume, mean, under extended daily treatment” value was 400+/−80 mm^3. For the same compound, the “in vivo activity in blocking c-MET phosphorylation and tumor growth” value in test [3] was “significant in vivo activity”.
